Test results as given in patent US4701441A, “Methods and compositions for stimulation of appetite” (University of Florida, priority 1985, dated 1987).
Read-outs that look alike come from different tables or passages of the source. Ends that are not written are not given here.

Tests used:
[1] = intravenous administration, Konturek et al; cited from earlier work
[2] = tested on: hyperphagic obese mice; settings: cited from earlier work
[3] = tested on: estradiol benzoate-progesterone-treated ovariectomized rats; experiment: Ingestive behavior noticed after ivt hPP during LH release studies; format: in vivo, rat; settings: intraventricular (ivt) administration
Description: 251; Morley et al (1973), Neurosci. Biobehav. Revs. 7: 281]. Recently, Tatemoto, Proc. Natl. Acad. Sci. USA. […] The detailed distribution pattern of neurons displaying NPY-like immunoreactivity in the rat brain has been described [Allen et al (1983), Science 221:877; Allen et al (1983), 13th Ann. Mtg. Soc. Neurosci. 9:291 (Abstr.); O'Donohue et al (1983), 13th Ann. Mtg. Soc. Neurosci. 9:290 (Abstr.)]. The physiological significance of NPY-like immunoreactivity in the rat brain is presently unknown.

[4] = tested on: ovariectomized rats pretreated with estradiol benzoate plus progesterone; experiment: Food intake and ingestive behavior after two ivt injections, Example 1; format: in vivo, rat
Method: Adult female rats (CRL:CD® (SD)BR, Charles River Breeding Labs, Wilmington, MA) were maintained in individual wire bottom cages under controlled temperature and light (lights on 0500-1900 h) with ad libitum access to food and water. Rats were ovariectomized and permanent cannulae were implanted in the third cerebral ventricle under pentobarbital anesthesia (40 mg/kg, […]). Eleven to 13 days after surgery, rats were treated with estradiol benzoate (30 μg in 0.1 ml sesame oil, sc) and progesterone (15 mg in 0.3 ml sesame oil, sc). Two days later […], food and water were removed and patency of the ivt cannula was checked by observing efflux of cerebrospinal fluid. […] Immediately after the ivt injections, rats were returned to their home cages which contained a known amount of rat chow and observed for 60 min. The behavior was recorded in 5 mutually exclusive categories: eating, grooming, locomotion, resting and other [Blundell, Bio-grammar of Feeding: Pharmacological Manipulations and Their Interpretations. In: Cooper, S. J. (ed) Theory in Psychopharmacology, Academic Press, N.Y., Vol. I: 233 (1981)] the following measurements were derived; total food intake (g); latency to feeding response (min); duration of time spent eating (min); number of eating bouts (n); duration of eating bouts (min) and local eating rate (g/min). Local eating rate is a measure of amount of food consumed per unit time spent eating.
Although no attempt was made to quantify the water intake, the latency to drinking and amount of time spent on drinking were monitored.
The number of animals feeding and drinking after peptide treatment were compared with saline-treated rats by the Fisher exact probability test. Parameters of ingestive behavior of controls vs. peptide treated groups were analyzed by the Mann-Whitney U test. Comparisons within groups of parameters after the first and second injections were made with the Wilcoxon matched pairs - signed rank test.
(*=P<0.05; **=P<0.01, Mann-Whitney U tests; a=p<0.05; b=P<0.025; c=P<0.005, Fisher Exact Probability Test) and S=saline.

[5] = tested on: normal adult male rats; experiment: Food intake after NPY and RPP by the Example 1 procedure, Example 3; format: in vivo, rat
[6] = hyperphagic obese mice, Malaisse et al
[7] = obese mice, intravenous, Zipf et al
[8] = 2 or 10 μg ivt, after second injection, P<0.02

Q: For `NC(=O)[C@@H]1CCCN1C(=O)[C@H](Cc1cnc[nH]1)NC(=O)[C@@H]1CCC(=O)N1` [TRH, p-Glu-His-Pro-NH2], which food intake [1] is on record?
A: suppressed food intake

Q: Which body weight gain [2, 6] does the source give for “bovine pancreatic polypeptide [bovine PP]” here?
A: suppressed body weight gain

Q: And the food intake [2, 6]?
A: reduced food intake

Q: What about the food intake [2, 7] of the same compound?
A: decrease of food intake

Q: And the weight gain [2, 7]?
A: decrease in weight gain

Q: Which ingestive behavior [3] does the source give for “human pancreatic polypeptide (APLEPVYPGDNATPEQMAQYAADLRRYINMLTRPRY; ends and bridges not checked; UniProt P01298 30-65, looked up) [hPP, human pancreatic polypeptide, straight-chain 36 amino acid residues; from Boehringer Mannheim]” here?
A: enhanced ingestive behavior

Q: What about the “rats that ate after the first injection” value ([4]; 2 μg ivt) of the same compound?
A: 4/6

Q: What about the “rats in which the drinking response preceded the feeding response” value ([4]; 10 μg ivt) of the same compound?
A: 3/7

Q: What about the “rats that ate after the first injection” value ([4]; 10 μg ivt) of the same compound?
A: 5/7

Q: And the “amount of time spent drinking” value [4, 8]?
A: only the higher does of hPP produced a similar response

Q: And the “number of animals drinking” value [4, 8]?
A: only the higher does of hPP produced a similar response

Q: What about the cumulative food intake ([4]; 2 or 10 μg ivt, compared with saline treated control rats) of the same compound?
A: stimulated cumulative food intake

Q: What about the “number of rats grooming during the observation periods” value ([4]; ivt) of the same compound?
A: Neither peptide altered the number of rats grooming

Q: Which cumulative food intake [5] does the source give for “rat pancreatic polypeptide (APLEPMYPGDYATHEQRAQYETQLRRYINTLTRPRY; ends and bridges not checked; UniProt P06303 30-65, looked up) [RPP, rat pancreatic polypeptide, member of the vertebrate pancreatic polypeptides (Pancreatic Hormone III)]” here?
A: enhanced cumulative food intake which is dose-dependent
